Assay results published in ChEMBL document CHEMBL3045530, “Synthesis, antimycobacterial, antiviral, antimicrobial activities, and QSAR studies of isonicotinic acid-1-(substituted phenyl)-ethylidene/cycloheptylidene hydrazides” (Med Chem Res, 2012).
Converted amounts (≈) assume the structure as drawn.

Tested on: Vesicular stomatitis virus
Test: Antiviral activity against Vesicular stomatitis virus infected human HeLa cells assessed as inhibition of virus-induced cytopathicity by microscopy
Format: functional, organism-based
Conditions: not given

SMILES | EC50
COc1ccc(/C(C)=N/NC(=O)c2ccncc2)c(OC)c1 | > 4 µg/mL
C/C(=N\NC(=O)c1ccncc1)c1ccc(O)cc1 | > 20 µg/mL

Tested on: Human herpesvirus 3 strain Oka vaccine
Test: Antiviral activity against Human herpesvirus 3 strain Oka vaccine OKA 07-1 (Varicella zoster virus ) infected in human HEL cells assessed as inhibition of virus-induced cytopathicity
Format: functional, organism-based
Conditions: Human alphaherpesvirus 3, HEL

SMILES | EC50
COc1ccc(/C(C)=N/NC(=O)c2ccncc2)c(OC)c1 | > 20 µg/mL
C/C(=N\NC(=O)c1ccncc1)c1ccc(O)cc1 | > 20 µg/mL

Tested on: Human herpesvirus 5 strain AD169
Test: Antiviral activity against Human herpesvirus 5 strain AD169 Davis infected human HEL cells assessed as inhibition of virus-induced cytopathicity by microscopy
Format: functional, organism-based
Conditions: Human betaherpesvirus 5, Davis

SMILES | EC50
COc1ccc(/C(C)=N/NC(=O)c2ccncc2)c(OC)c1 | > 20 µg/mL
C/C(=N\NC(=O)c1ccncc1)c1ccc(O)cc1 | > 20 µg/mL

Tested on: Respiratory syncytial virus
Test: Antiviral activity against Respiratory syncytial virus infected human HeLa cells assessed as inhibition of virus-induced cytopathicity by microscopy
Format: functional, organism-based
Conditions: not given

SMILES | EC50
COc1ccc(/C(C)=N/NC(=O)c2ccncc2)c(OC)c1 | > 4 µg/mL
C/C(=N\NC(=O)c1ccncc1)c1ccc(O)cc1 | > 20 µg/mL

Tested on: Human alphaherpesvirus 1
Test: Antiviral activity against Human herpesvirus 1 strain KOS infected human HEL cells assessed as inhibition of virus-induced cytopathicity by microscopy by microscopy
Format: functional, organism-based
Conditions: Human alphaherpesvirus 1, KOS

SMILES | EC50
COc1ccc(/C(C)=N/NC(=O)c2ccncc2)c(OC)c1 | > 100 µg/mL
C/C(=N\NC(=O)c1ccncc1)c1ccc(O)cc1 | > 20 µg/mL

Tested on: Human alphaherpesvirus 1
Test: Antiviral activity against TK(-) aciclovir-resistant Human herpesvirus 1 strain KOS infected in human HEL cells assessed as inhibition of virus-induced cytopathicity
Format: functional, organism-based
Conditions: Human alphaherpesvirus 1, KOS

SMILES | EC50
COc1ccc(/C(C)=N/NC(=O)c2ccncc2)c(OC)c1 | > 100 µg/mL
C/C(=N\NC(=O)c1ccncc1)c1ccc(O)cc1 | > 20 µg/mL

Tested on: Vaccinia virus
Test: Antiviral activity against Vaccinia virus infected human HEL cells assessed as inhibition of virus-induced cytopathicity by microscopy
Format: functional, organism-based
Conditions: Orthopoxvirus vaccinia

SMILES | EC50
COc1ccc(/C(C)=N/NC(=O)c2ccncc2)c(OC)c1 | > 100 µg/mL
C/C(=N\NC(=O)c1ccncc1)c1ccc(O)cc1 | > 20 µg/mL

Tested on: Human immunodeficiency virus 2
Test: Antiviral activity against Human immunodeficiency virus type 2 (ISOLATE ROD) infected MT4 cells assessed as inhibition of virus-induced cytopathic effect after 4 days by MTT assay
Format: functional, organism-based
Conditions: Human immunodeficiency virus 2, ISOLATE ROD, MT4, 96 h

SMILES | EC50
COc1ccc(/C(C)=N/NC(=O)c2ccncc2)c(OC)c1 | > 12 µg/mL
C/C(=N\NC(=O)c1ccncc1)c1ccc(O)cc1 | > 95 µg/mL
Cc1ccnc2c1NC(=O)c1cccnc1N2C1CC1 [NEVIRAPINE] | > 4 µg/mL

Tested on: Sindbis virus
Test: Antiviral activity against Sindbis virus infected Vero cells assessed as inhibition of virus-induced cytopathicity
Format: functional, organism-based
Conditions: not given

SMILES | EC50
COc1ccc(/C(C)=N/NC(=O)c2ccncc2)c(OC)c1 | > 20 µg/mL
C/C(=N\NC(=O)c1ccncc1)c1ccc(O)cc1 | > 20 µg/mL

Tested on: HEL
Test: Cytostatic against Homo sapiens (human) HEL cells assessed as alteration in cell morphology by microscopy
Format: ADME, cell-based
Conditions: not given

SMILES | Activity
COc1ccc(/C(C)=N/NC(=O)c2ccncc2)c(OC)c1 | Toxic
C/C(=N\NC(=O)c1ccncc1)c1ccc(O)cc1 | Toxic
C/C(=N\NC(=O)c1ccncc1)c1ccccc1Br | Toxic

Tested on: not listed separately
Test: Cytotoxicity against Chlorocebus aethiops (African green monkey) Vero cells assessed as alteration in cell morphology by microscopy
Format: cell-based
Conditions: chlorocebus sabaeus, read-out: MTC

SMILES | MCC
COc1ccc(/C(C)=N/NC(=O)c2ccncc2)c(OC)c1 | 100 µg/mL
C/C(=N\NC(=O)c1ccncc1)c1ccc(O)cc1 | ≥ 20 µg/mL

Tested on: Coxsackievirus B4
Test: Antiviral activity against Human coxsackievirus B4 infected Vero cells assessed as inhibition of virus-induced cytopathicity
Format: functional, organism-based
Conditions: Enterovirus B

SMILES | EC50
COc1ccc(/C(C)=N/NC(=O)c2ccncc2)c(OC)c1 | > 20 µg/mL
C/C(=N\NC(=O)c1ccncc1)c1ccc(O)cc1 | > 20 µg/mL

Tested on: Mammalian orthoreovirus 1
Test: Antiviral activity against Mammalian orthoreovirus 1 infected Vero cells assessed as inhibition of virus-induced cytopathicity by microscopy
Format: functional, organism-based
Conditions: Mammalian orthoreovirus 1, Vero

SMILES | EC50
COc1ccc(/C(C)=N/NC(=O)c2ccncc2)c(OC)c1 | > 20 µg/mL
C/C(=N\NC(=O)c1ccncc1)c1ccc(O)cc1 | > 20 µg/mL

Tested on: Candida albicans
Test: Antimicrobial activity against Candida albicans after 48 hr by tube dilution method
Format: functional
Conditions: not given

SMILES | -logMIC
NNC(=O)c1ccncc1 [ISONIAZID] | 2.34
COc1ccc(/C(C)=N/NC(=O)c2ccncc2)c(OC)c1 | 2.68
C/C(=N\NC(=O)c1ccncc1)c1ccc(O)cc1 | 2.31
OC(Cn1cncn1)(Cn1cncn1)c1ccc(F)cc1F [FLUCONAZOLE] | 2.64
C/C(=N\NC(=O)c1ccncc1)c1ccccc1Br | 2.71

Tested on: Staphylococcus aureus
Test: Antimicrobial activity against Staphylococcus aureus after 24 hr by tube dilution method
Format: functional
Conditions: not given

SMILES | -logMIC
CCn1cc(C(=O)O)c(=O)c2cc(F)c(N3CCNCC3)cc21 [NORFLOXACIN] | 2.61
NNC(=O)c1ccncc1 [ISONIAZID] | 2.04
COc1ccc(/C(C)=N/NC(=O)c2ccncc2)c(OC)c1 | 2.38
C/C(=N\NC(=O)c1ccncc1)c1ccc(O)cc1 | 2.01
C/C(=N\NC(=O)c1ccncc1)c1ccccc1Br | 2.41

Tested on: not listed separately
Test: Cytotoxicity against Homo sapiens (human) MT4 cells after 4 days by MTT assay
Format: cell-based
Conditions: not given

SMILES | CC50 at 96 h
COc1ccc(/C(C)=N/NC(=O)c2ccncc2)c(OC)c1 | 12 µg/mL (≈ 40.1 µM)
C/C(=N\NC(=O)c1ccncc1)c1ccc(O)cc1 | 95 µg/mL (≈ 372 µM)
Cc1ccnc2c1NC(=O)c1cccnc1N2C1CC1 [NEVIRAPINE] | > 4 µg/mL
Cc1cn([C@H]2C[C@H](N=[N+]=[N-])[C@@H](CO)O2)c(=O)[nH]c1=O [ZIDOVUDINE] | > 25 µg/mL

Tested on: Aspergillus niger
Test: Antimicrobial activity against Aspergillus niger after 7 days by tube dilution method
Format: functional
Conditions: not given

SMILES | -logMIC
NNC(=O)c1ccncc1 [ISONIAZID] | 2.04
COc1ccc(/C(C)=N/NC(=O)c2ccncc2)c(OC)c1 | 2.38
C/C(=N\NC(=O)c1ccncc1)c1ccc(O)cc1 | 2.31
OC(Cn1cncn1)(Cn1cncn1)c1ccc(F)cc1F [FLUCONAZOLE] | 2.64
C/C(=N\NC(=O)c1ccncc1)c1ccccc1Br | 2.41

Tested on: Escherichia coli
Test: Antimicrobial activity against Escherichia coli after 24 hr by tube dilution method
Format: functional
Conditions: not given

SMILES | -logMIC
CCn1cc(C(=O)O)c(=O)c2cc(F)c(N3CCNCC3)cc21 [NORFLOXACIN] | 2.61
NNC(=O)c1ccncc1 [ISONIAZID] | 1.74
COc1ccc(/C(C)=N/NC(=O)c2ccncc2)c(OC)c1 | 2.08
C/C(=N\NC(=O)c1ccncc1)c1ccc(O)cc1 | 2.01
C/C(=N\NC(=O)c1ccncc1)c1ccccc1Br | 2.41

Tested on: Human alphaherpesvirus 2
Test: Antiviral activity against Human herpesvirus 2 strain G infected human HEL cells assessed as inhibition of virus-induced cytopathicity by microscopy
Format: functional, organism-based
Conditions: Human alphaherpesvirus 2, strain G

SMILES | EC50
COc1ccc(/C(C)=N/NC(=O)c2ccncc2)c(OC)c1 | > 100 µg/mL
C/C(=N\NC(=O)c1ccncc1)c1ccc(O)cc1 | > 20 µg/mL

Tested on: Human immunodeficiency virus 1
Test: Antiviral activity against Human immunodeficiency virus 1 IIIB infected MT4 cells assessed as inhibition of virus-induced cytopathic effect after 4 days by MTT assay
Format: functional, organism-based
Conditions: MT4, 96 h

SMILES | EC50
COc1ccc(/C(C)=N/NC(=O)c2ccncc2)c(OC)c1 | > 12 µg/mL
C/C(=N\NC(=O)c1ccncc1)c1ccc(O)cc1 | > 95 µg/mL

Tested on: Coxsackievirus B4
Test: Antiviral activity against Human coxsackievirus B4 infected human HeLa cells assessed as inhibition of virus-induced cytopathicity by microscopy
Format: functional, organism-based
Conditions: Enterovirus B

SMILES | EC50
COc1ccc(/C(C)=N/NC(=O)c2ccncc2)c(OC)c1 | > 4 µg/mL
C/C(=N\NC(=O)c1ccncc1)c1ccc(O)cc1 | > 20 µg/mL

Tested on: Human respirovirus 3
Test: Antiviral activity against Human parainfluenza virus 3 infected Vero cells assessed as inhibition of virus-induced cytopathicity by microscopy
Format: functional, organism-based
Conditions: Human respirovirus 3, Vero

SMILES | EC50
COc1ccc(/C(C)=N/NC(=O)c2ccncc2)c(OC)c1 | > 20 µg/mL
C/C(=N\NC(=O)c1ccncc1)c1ccc(O)cc1 | > 20 µg/mL

Tested on: not listed separately
Test: Cytotoxicity against Homo sapiens (human) HeLa cells assessed as alteration in cell morphology by microscopy
Format: cell-based
Conditions: read-out: MTC

SMILES | MCC
COc1ccc(/C(C)=N/NC(=O)c2ccncc2)c(OC)c1 | 20 µg/mL
C/C(=N\NC(=O)c1ccncc1)c1ccc(O)cc1 | 100 µg/mL

Tested on: Bacillus subtilis
Test: Antimicrobial activity against Bacillus subtilis after 24 hr by tube dilution method
Format: functional
Conditions: not given

SMILES | -logMIC
CCn1cc(C(=O)O)c(=O)c2cc(F)c(N3CCNCC3)cc21 [NORFLOXACIN] | 2.61
NNC(=O)c1ccncc1 [ISONIAZID] | 1.74
COc1ccc(/C(C)=N/NC(=O)c2ccncc2)c(OC)c1 | 2.38
C/C(=N\NC(=O)c1ccncc1)c1ccc(O)cc1 | 2.01
C/C(=N\NC(=O)c1ccncc1)c1ccccc1Br | 2.71

Tested on: not listed separately
Test: Cytotoxicity against Homo sapiens (human) HEL cells assessed as alteration in cell morphology by microscopy
Format: cell-based
Conditions: not given

SMILES | CC50
COc1ccc(/C(C)=N/NC(=O)c2ccncc2)c(OC)c1 | 10 µg/mL (≈ 33.4 µM)
C/C(=N\NC(=O)c1ccncc1)c1ccc(O)cc1 | 91 µg/mL (≈ 356 µM)

Same assay, conditions: read-out: MTC

SMILES | MCC
COc1ccc(/C(C)=N/NC(=O)c2ccncc2)c(OC)c1 | > 100 µg/mL
C/C(=N\NC(=O)c1ccncc1)c1ccc(O)cc1 | 100 µg/mL

Tested on: Punta Toro virus
Test: Antiviral activity against Punta Toro virus infected Vero cells assessed as inhibition of virus-induced cytopathicity
Format: functional, organism-based
Conditions: not given

SMILES | EC50
COc1ccc(/C(C)=N/NC(=O)c2ccncc2)c(OC)c1 | > 20 µg/mL
C/C(=N\NC(=O)c1ccncc1)c1ccc(O)cc1 | > 20 µg/mL
